# Results published in ChEMBL document CHEMBL6109129, “Discovery of Conformationally Constrained Dihydro Benzo-Indole Derivatives as Metallo-β-Lactamase Inhibitors to Tackle Multidrug-Resistant Bacterial Infections” (J Med Chem, 2025).
# Calls of active or inactive are those of the source. The calls are words filed in the database; no cut-off is given here.
# Legend:
# Klebsiella pneumoniae [1] = test: Synergistic antibacterial activity against carbapenem-resistant Klebsiella pneumoniae 565345 assessed as reduction in microbial growth at 4 ug/ml measured after 16 to 18 hrs in presence of meropenem by microbial dilution method; assay type: functional; conditions: dose 4 µg/ml, time 16-18 hrs
# [2] = test system: Klebsiella pneumoniae subsp. pneumoniae; test: Synergistic antibacterial activity against carbapenem-resistant Klebsiella pneumoniae subsp. pneumoniae BAA-2472 assessed as reduction in microbial growth at 8 ug/ml measured after 16 to 18 hrs in presence of meropenem by microbial dilution method; assay type: functional; conditions: dose 8 µg/ml, time 16-18 hrs
# [3] = target: Metallo-beta-lactamase type 2 (Bacteria) (UniProt C7C422); test: Induction of thermal stabilization of NDM-1 (unknown origin) assessed as increase in melting temperature by differential scanning fluorimetry analysis; conditions: dose 3.12-50 µM
# Escherichia coli [4] = test: Synergistic antibacterial activity against carbapenem-resistant Escherichia coli 567975 assessed as reduction in microbial growth at 4 ug/ml measured after 16 to 18 hrs in presence of meropenem by microbial dilution method; assay type: functional; conditions: dose 4 µg/ml, time 16-18 hrs
# [5] = test system: Klebsiella pneumoniae subsp. pneumoniae; test: Synergistic antibacterial activity against carbapenem-resistant Klebsiella pneumoniae subsp. pneumoniae BAA-2470 assessed as reduction in microbial growth at 8 ug/ml measured after 16 to 18 hrs in presence of imipenem by microbial dilution method; assay type: functional; conditions: dose 8 µg/ml, time 16-18 hrs
# Escherichia coli [6] = test: Synergistic antibacterial activity against carbapenem-resistant Escherichia coli 565988 assessed as reduction in microbial growth at 16 ug/ml measured after 16 to 18 hrs in presence of imipenem by microbial dilution method; assay type: functional; conditions: dose 16 µg/ml, time 16-18 hrs
# Klebsiella pneumoniae [7] = test: Anti-infective activity against carbapenem-resistant Klebsiella pneumoniae ATCC BAA 2146 expressing NDM-1 infected in neutropenic female BALB/c mouse deep thigh infection model assessed as reduction in bacterial count at 20 mg/kg,sc pre-infected with bacteria for 2 hrs followed by compound addition and measured after 26 hrs in presence of imipenem; assay type: functional
# [8] = test system: Klebsiella pneumoniae subsp. pneumoniae; test: Synergistic antibacterial activity against carbapenem-resistant Klebsiella pneumoniae BAA-2472 assessed as reduction in microbial growth at 16 ug/ml measured after 16 to 18 hrs in presence of meropenem by microbial dilution method; assay type: functional; conditions: dose 16 µg/ml, time 16-18 hrs
# Klebsiella pneumoniae [9] = test: Synergistic antibacterial activity against carbapenem-resistant Klebsiella pneumoniae 538961 assessed as reduction in microbial growth at 4 ug/ml measured after 16 to 18 hrs in presence of meropenem by microbial dilution method; assay type: functional; conditions: dose 4 µg/ml, time 16-18 hrs
# Escherichia coli [10] = test: Synergistic antibacterial activity against carbapenem-resistant Escherichia coli 571307 assessed as reduction in microbial growth at 4 ug/ml measured after 16 to 18 hrs in presence of imipenem by microbial dilution method; assay type: functional; conditions: dose 4 µg/ml, time 16-18 hrs
# [11] = test system: Klebsiella pneumoniae subsp. pneumoniae; test: Synergistic antibacterial activity against carbapenem-resistant Klebsiella pneumoniae subsp. pneumoniae BAA-2470 assessed as reduction in microbial growth at 8 ug/ml measured after 16 to 18 hrs in presence of meropenem by microbial dilution method; assay type: functional; conditions: dose 8 µg/ml, time 16-18 hrs
# Klebsiella pneumoniae [12] = test: Synergistic antibacterial activity against Klebsiella pneumoniae ATCC BAA 2146 expressing NDM-1 measured after 16 to 18 hrs in presence of meropenem by microbial dilution method; assay type: functional, organism-based; conditions: time 16-18 hrs
# Escherichia coli [13] = test: Synergistic antibacterial activity against carbapenem-resistant Escherichia coli BAA-2469 assessed as reduction in microbial growth at 16 ug/ml measured after 16 to 18 hrs in presence of meropenem by microbial dilution method; assay type: functional; conditions: dose 16 µg/ml, time 16-18 hrs
# Klebsiella pneumoniae [14] = test: Synergistic antibacterial activity against carbapenem-resistant Klebsiella pneumoniae BAA-2473 assessed as reduction in microbial growth at 8 ug/ml measured after 16 to 18 hrs in presence of meropenem by microbial dilution method; assay type: functional; conditions: dose 8 µg/ml, time 16-18 hrs
# Escherichia coli [15] = test: Synergistic antibacterial activity against carbapenem-resistant Escherichia coli 541588 assessed as reduction in microbial growth at 16 ug/ml measured after 16 to 18 hrs in presence of meropenem by microbial dilution method; assay type: functional; conditions: dose 16 µg/ml, time 16-18 hrs
# Escherichia coli [16] = test: Synergistic antibacterial activity against carbapenem-resistant Escherichia coli 571307 assessed as reduction in microbial growth at 4 ug/ml measured after 16 to 18 hrs in presence of meropenem by microbial dilution method; assay type: functional; conditions: dose 4 µg/ml, time 16-18 hrs
# [17] = target: Metallo-beta-lactamase type 2 (Bacteria) (UniProt C7C422); test: Induction of thermal stabilization of NDM-1 (unknown origin) assessed as melting temperature at 50 uM by differential scanning fluorimetry analysis
# [18] = test system: Klebsiella pneumoniae subsp. pneumoniae; test: Synergistic antibacterial activity against carbapenem-resistant Klebsiella pneumoniae BAA-2472 assessed as reduction in microbial growth at 16 ug/ml measured after 16 to 18 hrs in presence of imipenem by microbial dilution method; assay type: functional; conditions: dose 16 µg/ml, time 16-18 hrs
# Klebsiella pneumoniae [19] = test: Synergistic antibacterial activity against carbapenem-resistant Klebsiella pneumoniae 571278 assessed as reduction in microbial growth at 16 ug/ml measured after 16 to 18 hrs in presence of meropenem by microbial dilution method; assay type: functional; conditions: dose 16 µg/ml, time 16-18 hrs
# Klebsiella pneumoniae [20] = test: Synergistic antibacterial activity against Klebsiella pneumoniae ATCC BAA 2146 expressing NDM-1 measured after 16 to 18 hrs in presence of imipenem by microbial dilution method; assay type: functional, organism-based; conditions: time 16-18 hrs
# Escherichia coli [21] = test: Synergistic antibacterial activity against carbapenem-resistant Escherichia coli BAA-2469 assessed as reduction in microbial growth at 0.5 ug/ml measured after 16 to 18 hrs in presence of meropenem by microbial dilution method; assay type: functional; conditions: dose 0.5 µg/ml, time 16-18 hrs
# Escherichia coli [22] = test: Synergistic antibacterial activity against carbapenem-resistant Escherichia coli 567975 assessed as reduction in microbial growth at 4 ug/ml measured after 16 to 18 hrs in presence of imipenem by microbial dilution method; assay type: functional; conditions: dose 4 µg/ml, time 16-18 hrs
# Escherichia coli [23] = test: Synergistic antibacterial activity against carbapenem-resistant Escherichia coli BAA-2469 assessed as reduction in microbial growth at 8 ug/ml measured after 16 to 18 hrs in presence of imipenem by microbial dilution method; assay type: functional; conditions: dose 8 µg/ml, time 16-18 hrs
# [24] = test system: Klebsiella pneumoniae subsp. pneumoniae; test: Synergistic antibacterial activity against carbapenem-resistant Klebsiella pneumoniae subsp. pneumoniae BAA-2472 assessed as reduction in microbial growth at 8 ug/ml measured after 16 to 18 hrs in presence of imipenem by microbial dilution method; assay type: functional; conditions: dose 8 µg/ml, time 16-18 hrs
# Escherichia coli [25] = test: Synergistic antibacterial activity against carbapenem-resistant Escherichia coli 567975 assessed as reduction in microbial growth at 16 ug/ml measured after 16 to 18 hrs in presence of meropenem by microbial dilution method; assay type: functional; conditions: dose 16 µg/ml, time 16-18 hrs
# Klebsiella pneumoniae [26] = test: Synergistic antibacterial activity against carbapenem-resistant Klebsiella pneumoniae 565345 assessed as reduction in microbial growth at 4 ug/ml measured after 16 to 18 hrs in presence of imipenem by microbial dilution method; assay type: functional; conditions: dose 4 µg/ml, time 16-18 hrs
# Escherichia coli [27] = test: Synergistic antibacterial activity against carbapenem-resistant Escherichia coli 541588 assessed as reduction in microbial growth at 16 ug/ml measured after 16 to 18 hrs in presence of imipenem by microbial dilution method; assay type: functional; conditions: dose 16 µg/ml, time 16-18 hrs
# Enterobacter cloacae [28] = test: Synergistic antibacterial activity against carbapenem-resistant Enterobacter cloacae BAA-2468 assessed as reduction in microbial growth at 8 ug/ml measured after 16 to 18 hrs in presence of meropenem by microbial dilution method; assay type: functional; conditions: dose 8 µg/ml, time 16-18 hrs
# Escherichia coli [29] = test: Synergistic antibacterial activity against carbapenem-resistant Escherichia coli BAA-2471 assessed as reduction in microbial growth at 8 ug/ml measured after 16 to 18 hrs in presence of imipenem by microbial dilution method; assay type: functional; conditions: dose 8 µg/ml, time 16-18 hrs
# Enterobacter cloacae [30] = test: Synergistic antibacterial activity against carbapenem-resistant Enterobacter cloacae BAA-2468 assessed as reduction in microbial growth at 16 ug/ml measured after 16 to 18 hrs in presence of imipenem by microbial dilution method; assay type: functional; conditions: dose 16 µg/ml, time 16-18 hrs
# Metallo-beta-lactamase type 2 (Bacteria), sequence (C7C422 whole entry): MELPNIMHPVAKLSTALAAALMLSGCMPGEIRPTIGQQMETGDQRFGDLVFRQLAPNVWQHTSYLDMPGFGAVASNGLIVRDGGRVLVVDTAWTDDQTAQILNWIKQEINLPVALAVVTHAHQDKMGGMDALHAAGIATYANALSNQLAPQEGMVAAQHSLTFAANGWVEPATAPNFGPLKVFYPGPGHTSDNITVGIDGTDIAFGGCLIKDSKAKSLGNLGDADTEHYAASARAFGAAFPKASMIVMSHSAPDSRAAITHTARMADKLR
structure (smiles),measurement,setting,value
COc1ccc(Cl)cc1-c1c(C(=O)O)[nH]c2c1CCc1ccccc1-2,MIC,Klebsiella pneumoniae [1],4 µg/mL
same,MIC,[2],64 µg/mL
same,Activity,[3],Active
same,MIC,Escherichia coli [4],1 µg/mL
same,MIC,[5],2 µg/mL
same,MIC,Escherichia coli [6],< 0.5 µg/mL
same,Activity,Klebsiella pneumoniae [7],~2.2 log10CFU/ml
same,MIC,[8],32 µg/mL
same,MIC,Klebsiella pneumoniae [9],16 µg/mL
same,MIC,Escherichia coli [10],4 µg/mL
same,MIC,[11],8 µg/mL
same,Activity,Klebsiella pneumoniae [12],Active
same,MIC,Escherichia coli [13],2 µg/mL
same,MIC,Klebsiella pneumoniae [14],16 µg/mL
same,MIC,Escherichia coli [15],1 µg/mL
same,MIC,Escherichia coli [16],2 µg/mL
same,Tm,[17],20 °C
same,MIC,[18],8 µg/mL
same,MIC,Klebsiella pneumoniae [19],16 µg/mL
same,Activity,Klebsiella pneumoniae [20],Active
same,MIC,Escherichia coli [21],16 µg/mL
same,MIC,Escherichia coli [22],8 µg/mL
same,MIC,Escherichia coli [23],8 µg/mL
same,MIC,[24],32 µg/mL
same,MIC,Escherichia coli [25],< 0.5 µg/mL
same,MIC,Klebsiella pneumoniae [26],32 µg/mL
same,MIC,Escherichia coli [27],1 µg/mL
same,MIC,Enterobacter cloacae [28],8 µg/mL
same,MIC,Escherichia coli [29],16 µg/mL
same,MIC,Enterobacter cloacae [30],32 µg/mL
